From patent publication US7148232B2, “Oxazolo, thiazolo and selenazolo [4,5-c]-quinolin-4-amines and analogs thereof” (3M Innovative Properties Company, priority 1998, dated 2006)
“And” between values parts separate entries of the source, which are not always exact repeats. Equal values may be shown once.

Assays:
interferon (α) = test: Interferon (α) induction in human cells (in vitro human blood cell system, interferon by bioassay); type: cell-based; conditions: human PBM's, 48 hours
Experimental: An in vitro human blood cell system was used to assess interferon induction by compounds of the invention. Activity is based on the measurement of interferon secreted into culture media. Interferon is measured by bioassay.
Whole blood is collected by venipuncture into EDTA vacutainer tubes. Peripheral blood mononuclear cells (PBM's) are separated from whole blood by using either LeucoPREP™ Brand Cell Separation Tubes (available from Becton Dickinson) or Ficoll-Paque® solution (available from Pharmacia LKB Biotechnology Inc, Piscataway, N.J.). […] 200 μL portions of PBM suspension are added to 96 well (flat bottom) sterile tissue culture plates (Becton Dickinson Labware, Lincoln Park, N.J.).
The compounds are solubilized in ethanol, dimethyl sulfoxide or tissue culture water then diluted with tissue culture water, 0.01N sodium hydroxide or 0.01N hydrochloric acid (The choice of solvent will depend on the chemical characteristics of the compound being tested.). Ethanol or DMSO concentration should not exceed a final concentration of 1% for addition to the culture wells. Compounds are initially tested in a concentration range of from about 0.1 μg/mL to about 5 μg/mL. Compounds which show induction at a concentration of 0.5 μg/mL are then tested in a wider concentration range.
The solution of test compound is added in a volume (less than or equal to 50 μL) to the wells containing 200 μL of diluted whole blood or of PBM's in media. Solvent and/or media is added to control wells (wells with no test compound) and as needed to adjust the final volume of each well to 250 μL. The plates are covered with plastic lids, vortexed gently and then incubated for 48 hours at 37° C. with a 5% carbon dioxide atmosphere.
Following incubation, the plates are covered with parafilm and then centrifuged at 1000 rpm for 10 to 15 minutes at 4° C. in a Damon IEC Model CRU-5000 centrifuge. Media (about 200 μL) is removed from 4 to 8 wells and pooled into 2 mL sterile freezing vials. Samples are maintained at −70° C. until analysis.
Interferon is determined by bioassay using A549 human lung carcinoma cells challenged with encephalomyocarditis. The details of the bioassay method have been described by G. L. Brennan and L. H. Kronenberg in “Automated Bioassay of Interferons in Micro-test Plates”, Biotechniques, June/Jul. […] The incubated cells are infected with an inoculum of encephalomyocarditis virus. The infected cells are incubated for an additional period at 37° C. before quantifying for viral cytopathic effect. The viral cytopathic effect is quantified by staining followed by spectrophotometric absorbance measurements. Results are expressed as alpha reference units/mL based on the value obtained for NIH HU IF-L standard.
Compounds of the invention were tested for their ability to induce interferon in human cells using the test method described above.

SMILES	melting point	Interferon (α) Induction in Human Cells (interferon (α); Dose Concentration 0.01 μg/mL)	Interferon (α) Induction in Human Cells (interferon (α); Dose Concentration 0.05 μg/mL)	Interferon (α) Induction in Human Cells (interferon (α); Dose Concentration 0.10 μg/mL)	Interferon (α) Induction in Human Cells (interferon (α); Dose Concentration 0.50 μg/mL)	Interferon (α) Induction in Human Cells (interferon (α); Dose Concentration 1.0 μg/mL)	Interferon (α) Induction in Human Cells (interferon (α); Dose Concentration 5.0 μg/mL)	Interferon (α) Induction in Human Cells (interferon (α); Dose Concentration 10.0 μg/mL)	Interferon (α) Induction in Human Cells (interferon (α); Dose Concentration 25.0 μg/mL)	Interferon (α) Induction in Human Cells (interferon (α); Dose Concentration 50.0 μg/mL)
CCCCCc1nc2c(N)nc3ccccc3c2s1 [Example 16, 2-Pentylthiazolo[4,5-c]quinolin-4-amine]	119 to 121 °C	−	−	−	−	+	+			
Nc1nc2ccccc2c2sc(/C=C/c3ccccc3)nc12 [Example 22, 2-(2-Phenyl-1-ethenyl)thiazolo[4,5-c]quinolin-4-amine]	239 to 241 °C	−	−	−	−	−	−	+	+	+
CC(C)(Cc1nc2c(N)nc3ccccc3c2s1)OC(N)=O [Example 26, 2-(4-Aminothiazolo[4,5-c]quinolin-2-yl)-1,1-dimethylethyl Carbamate]	222 to 223 °C	−	−	−	−	−	+	+	+	+
CCOCc1nc2c(N)nc3ccccc3c2s1 [Example 28, 2-(Ethoxymethyl)thiazolo[4,5-c]quinoline-4-amine]	149 to 151 °C	−	−	−	+	+	+			
CCCc1nc2c[n+]([O-])c3cccnc3c2s1 [Example 59, 2-Propylthiazolo[4,5-c][1,5]naphthyridine-5N-oxide]	139 to 142 °C									
CCCc1nc2c[n+]([O-])ccc2s1 [Example 61, 2-Propylpyrido[3,4-d][1,3]thiazole-5N-oxide]	137 to 139 °C									

Further lines, with some results ahead:

melting point	SMILES	Interferon (α) Induction in Human Cells (interferon (α); Dose Concentration 0.01 μg/mL)	Interferon (α) Induction in Human Cells (interferon (α); Dose Concentration 0.05 μg/mL)	Interferon (α) Induction in Human Cells (interferon (α); Dose Concentration 0.10 μg/mL)	Interferon (α) Induction in Human Cells (interferon (α); Dose Concentration 0.50 μg/mL)	Interferon (α) Induction in Human Cells (interferon (α); Dose Concentration 1.0 μg/mL)	Interferon (α) Induction in Human Cells (interferon (α); Dose Concentration 5.0 μg/mL)	Interferon (α) Induction in Human Cells (interferon (α); Dose Concentration 10.0 μg/mL)	Interferon (α) Induction in Human Cells (interferon (α); Dose Concentration 25.0 μg/mL)	Interferon (α) Induction in Human Cells (interferon (α); Dose Concentration 50.0 μg/mL)
184 to 187 °C and 184 to 186 °C	Cc1nc2c(N)nc3ccccc3c2s1 [Example 2, 2-Methylthiazolo[4,5-c]quinolin-4-amine]	−	−	±	+	+	+			
323 to 325 °C	Cc1nc2c(N)nc3ccccc3c2s1.Cl [Example 4, 2-Methylthiazolo[4,5-c]quinolin-4-amine Hydrochloride]	−	−	−	+	+	+			
170 to 172 °C and 169 to 171 °C	CCc1nc2c(N)nc3ccccc3c2s1 [Example 8, 2-Ethylthiazolo[4,5-c]quinolin-4-amine]	−	−	−	+	+	+			
183 to 185 °C	COCc1nc2c(N)nc3ccccc3c2s1 [Example 30, 2-(Methoxymethyl)thiazolo[4,5-c]quinolin-4-amine]	−	−	−	−	+	+			
